Measurements: ChEMBL document CHEMBL5365447, “Pronucleotides of 2',3'-Dideoxy-2',3'-Didehydrothymidine as Potent Anti-HIV Compounds” (J Med Chem, 2023)
Activity calls are given as the source filed them. The rule behind the calls is not given here.

Target: T1, DNA polymerase alpha catalytic subunit (Homo sapiens) (UniProt P09884)
T1 sequence (whole entry): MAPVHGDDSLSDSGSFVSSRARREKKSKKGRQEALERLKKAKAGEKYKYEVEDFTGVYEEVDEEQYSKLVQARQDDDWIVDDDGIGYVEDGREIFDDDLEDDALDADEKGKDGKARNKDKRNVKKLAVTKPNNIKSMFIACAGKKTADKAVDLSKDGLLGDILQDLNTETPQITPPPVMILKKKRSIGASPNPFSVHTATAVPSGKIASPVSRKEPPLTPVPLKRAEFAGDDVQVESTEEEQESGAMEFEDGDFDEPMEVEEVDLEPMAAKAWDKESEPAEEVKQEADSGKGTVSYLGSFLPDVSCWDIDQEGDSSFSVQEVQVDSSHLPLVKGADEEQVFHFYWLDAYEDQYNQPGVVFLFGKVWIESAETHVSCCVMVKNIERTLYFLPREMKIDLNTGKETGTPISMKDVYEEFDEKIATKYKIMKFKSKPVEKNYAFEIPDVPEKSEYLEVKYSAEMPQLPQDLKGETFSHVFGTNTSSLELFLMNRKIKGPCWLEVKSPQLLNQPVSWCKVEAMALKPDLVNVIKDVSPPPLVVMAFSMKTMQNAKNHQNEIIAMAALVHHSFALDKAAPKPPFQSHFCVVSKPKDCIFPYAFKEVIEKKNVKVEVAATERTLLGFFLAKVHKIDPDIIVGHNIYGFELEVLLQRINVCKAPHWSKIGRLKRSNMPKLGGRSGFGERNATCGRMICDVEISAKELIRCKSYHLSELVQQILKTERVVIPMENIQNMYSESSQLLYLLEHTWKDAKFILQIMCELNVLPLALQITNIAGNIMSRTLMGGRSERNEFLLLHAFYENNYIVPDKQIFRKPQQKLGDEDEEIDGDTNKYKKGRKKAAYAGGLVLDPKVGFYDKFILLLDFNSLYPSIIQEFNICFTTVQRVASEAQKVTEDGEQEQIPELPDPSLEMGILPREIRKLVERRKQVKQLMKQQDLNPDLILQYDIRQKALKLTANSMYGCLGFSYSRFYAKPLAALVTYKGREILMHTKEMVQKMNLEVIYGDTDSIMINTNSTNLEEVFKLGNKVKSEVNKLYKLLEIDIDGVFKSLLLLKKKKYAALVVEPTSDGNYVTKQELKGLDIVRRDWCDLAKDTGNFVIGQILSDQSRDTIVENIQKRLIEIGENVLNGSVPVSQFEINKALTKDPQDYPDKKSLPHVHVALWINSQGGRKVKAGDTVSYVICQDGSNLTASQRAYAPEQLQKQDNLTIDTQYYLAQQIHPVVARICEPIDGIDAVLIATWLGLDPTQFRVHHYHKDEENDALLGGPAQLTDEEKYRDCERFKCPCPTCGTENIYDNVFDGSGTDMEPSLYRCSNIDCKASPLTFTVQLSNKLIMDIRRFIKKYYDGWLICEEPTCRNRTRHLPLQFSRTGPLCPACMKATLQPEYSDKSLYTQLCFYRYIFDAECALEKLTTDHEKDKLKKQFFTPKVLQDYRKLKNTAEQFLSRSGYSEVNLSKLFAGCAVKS
Assay: Substrate activity at human DNA polymerase alpha measured after 4 hrs by electrophoresis based primer extension assay

`CCCCCCCCCCCCCCCCCCP(=O)(OC)OP(=O)(O)OP(=O)(O)OC[C@@H]1C=C[C@H](n2cc(C)c(=O)[nH]c2=O)O1.N.N` (stereo partly specified) was tested, and the Activity was “inactive”.
